# Reference: patent US8629141B2, “Spiro-oxindole MDM2 antagonists” (The Regents of the University of Michigan, priority 2011, dated 2014)
# Target: recombinant human His-tagged MDM2 protein (residues 1-118) (Homo sapiens (Human), UniProt Q00987)
# Experiment: Fluorescence-polarization MDM2 competitive binding assay
# Conditions: FP competition with PMDM6-F peptide (1 nM), MDM2 10 nM, 3 h incubation; read-out: Binding affinities to MDM2 (1-118) IC50
# Protocol: The binding affinity of the MDM2 inhibitors disclosed herein was determined using a fluorescence polarization-based (FP-based) binding assay using a recombinant human His-tagged MDM2 protein (residues 1-118) and a fluorescently tagged p53-based peptide.
# (García-Echeverria et al., J. Med. Chem. 43: 3205-3208 (2000)). […] The assay was performed in the buffer: 100 mM potassium phosphate, pH 7.5; 100 μg/mL bovine gamma globulin; 0.02% sodium azide, 0.01% Triton X-100) and the polarization values were measured after 3 h of incubation using an ULTRA READER (Tecan U.S. Inc., Research Triangle Park, N.C.). […] The Kd value was calculated using the equation: Kd value=IC50−L0/2.
# 100 μg/mL bovine gamma globulin; 0.02% sodium azide, 0.01% Triton X-100), were added in a Dynex 96-well, black, round-bottom plate to produce a final volume of 125 μL. […] The polarization values were measured after 3 h of incubation. […] Curve fitting was performed using […] PRISM software (GraphPad Software, Inc., San Diego, Calif.).
row,SMILES,IC50
1,CC1(C)N[C@@H](C(=O)NC2CCC(O)CC2)[C@H](c2cccc(Cl)c2F)[C@]12C(=O)Nc1cc(Cl)ccc12 (some centres unmarked) [Compound 1],201 nM
2,O=C(NC1CCC(O)CC1)[C@@H]1NC[C@@]2(C(=O)Nc3cc(Cl)ccc32)[C@H]1c1cccc(Cl)c1F (some centres unmarked) [Compound 5],> 10000 nM
3,CCC1(CC)N[C@@H](C(=O)NCCN2CCOCC2)[C@H](c2cccc(Cl)c2F)[C@]12C(=O)Nc1cc(Cl)ccc12 [Compound 6],< 1000 nM
4,O=C(NCCN1CCOCC1)[C@@H]1NC2(CCC(F)(F)CC2)[C@@]2(C(=O)Nc3cc(Cl)ccc32)[C@H]1c1cccc(Cl)c1F [Compound 7],< 1000 nM
5,O=C(NCCN1CCOCC1)[C@@H]1NC2(CCC(F)(F)CC2)[C@]2(C(=O)Nc3cc(Cl)ccc32)[C@H]1c1cccc(Cl)c1F [Compound 8],< 5000 nM
6,O=C(NCCN1CCOCC1)[C@@H]1NC2(CCOCC2)[C@@]2(C(=O)Nc3cc(Cl)ccc32)[C@H]1c1cccc(Cl)c1F [Compound 12],< 5000 nM
7,O=C(NCCN1CCOCC1)[C@@H]1NC2(CCCCC2)[C@@]2(C(=O)Nc3cc(Cl)ccc32)[C@H]1c1cccc(Cl)c1F [Compound 15],< 100 nM
8,CS(=O)(=O)CCNC(=O)[C@@H]1NC2(CCCCC2)[C@@]2(C(=O)Nc3cc(Cl)ccc32)[C@H]1c1cccc(Cl)c1F [Compound 20],< 100 nM
9,CS(=O)(=O)CCN1CCC(NC(=O)[C@@H]2NC3(CCCCC3)[C@@]3(C(=O)Nc4cc(Cl)ccc43)[C@H]2c2cccc(Cl)c2F)CC1 [Compound 25],< 100 nM
10,O=C(O)[C@@H]1NC2(CCCCC2)[C@@]2(C(=O)Nc3cc(Cl)ccc32)[C@H]1c1cccc(Cl)c1F [Compound 26],< 500 nM
11,O=C(NCc1nnn[nH]1)[C@@H]1NC2(CCCCC2)[C@@]2(C(=O)Nc3cc(Cl)ccc32)[C@H]1c1cccc(Cl)c1F [Compound 32],< 100 nM
12,CC1(O)CC(NC(=O)[C@@H]2NC3(CCCCC3)[C@@]3(C(=O)Nc4cc(Cl)ccc43)[C@H]2c2cccc(Cl)c2F)C1 (some centres unmarked) [Compound 33],< 100 nM
13,CNC(=O)[C@@H]1NC2(CCCCC2)[C@@]2(C(=O)Nc3cc(Cl)ccc32)[C@H]1c1cc(Cl)ccc1OC(C)(C)C(=O)O [Compound 34],> 10000 nM
14,CNC(=O)[C@@H]1NC2(CCCCC2)[C@@]2(C(=O)Nc3cc(Cl)ccc32)[C@H]1c1cc(Cl)cnc1OC(C)(C)C(=O)O [Compound 35],> 10000 nM
15,O=C(NC1CN(C(=O)O)C1)[C@@H]1NC2(CCCCC2)[C@@]2(C(=O)Nc3cc(Cl)ccc32)[C@H]1c1cccc(Cl)c1F [Compound 39],< 100 nM
16,O=C(NC1CCC(O)CC1)[C@@H]1NC2(CCCCC2)[C@@]2(C(=O)Nc3cc(Cl)ccc32)[C@H]1c1cccc(Cl)c1F (some centres unmarked) [Compound 41],< 100 nM

# Same assay, conditions: FP competition with PMDM6-F peptide; read-out: Binding affinities to MDM2 (1-118) Ki
row,SMILES,Ki
1,CC1(C)N[C@@H](C(=O)NC2CCC(O)CC2)[C@H](c2cccc(Cl)c2F)[C@]12C(=O)Nc1cc(Cl)ccc12 (some centres unmarked) [Compound 1],26.4 nM

# Test system: not listed separately
# Experiment: Stability of compounds in solution, 1:1 MeOH:H2O
# Type: physicochemical
# Conditions: ultra performance liquid chromatography (FIG. 4)
row,SMILES,Stability in solution
1,O=C(NC1CN(C(=O)O)C1)[C@@H]1NC2(CCCCC2)[C@@]2(C(=O)Nc3cc(Cl)ccc32)[C@H]1c1cccc(Cl)c1F [compound 39],more stable than MI-77301

# Test system: not listed separately
# Experiment: Stability of compounds in solution, 1:1 CH3CN:H2O
# Type: physicochemical
# Conditions: ultra performance liquid chromatography (FIG. 5)
row,SMILES,Stability in solution
1,O=C(NC1CN(C(=O)O)C1)[C@@H]1NC2(CCCCC2)[C@@]2(C(=O)Nc3cc(Cl)ccc32)[C@H]1c1cccc(Cl)c1F [compound 39],more stable than MI-77301

# Test system: not listed separately
# Experiment: Stability in 1:1 MeOH:H2O with 10% TFA
# Type: physicochemical
# Conditions: 1:1 MeOH:H2O with 10% TFA added, UPLC (FIG. 6)
# Protocol: The stability of Compound Example Nos. 10 and 11 were determined in 1:1 MeOH:H2O with 10% TFA added using ultra performance liquid chromatography (FIG. 6).
row,SMILES,Stability in solution (isomer conversion)
1,O=C(NC1CCC(O)CC1)[C@@H]1NC2(CCOCC2)[C@]2(C(=O)Nc3cc(Cl)ccc32)[C@H]1c1cccc(Cl)c1F (some centres unmarked) [compound 10],converted into Compound Example No. 11
